Laboratory results taken from patent publication US20230167073A1 (Teijin Pharma Limited, priority 2020, published 2023).

Target: T1, Human TRPC6 (Homo sapiens, UniProt Q9Y210)
T1 construct: expressed in transfected cells
T1 sequence (Q9Y210 1-931): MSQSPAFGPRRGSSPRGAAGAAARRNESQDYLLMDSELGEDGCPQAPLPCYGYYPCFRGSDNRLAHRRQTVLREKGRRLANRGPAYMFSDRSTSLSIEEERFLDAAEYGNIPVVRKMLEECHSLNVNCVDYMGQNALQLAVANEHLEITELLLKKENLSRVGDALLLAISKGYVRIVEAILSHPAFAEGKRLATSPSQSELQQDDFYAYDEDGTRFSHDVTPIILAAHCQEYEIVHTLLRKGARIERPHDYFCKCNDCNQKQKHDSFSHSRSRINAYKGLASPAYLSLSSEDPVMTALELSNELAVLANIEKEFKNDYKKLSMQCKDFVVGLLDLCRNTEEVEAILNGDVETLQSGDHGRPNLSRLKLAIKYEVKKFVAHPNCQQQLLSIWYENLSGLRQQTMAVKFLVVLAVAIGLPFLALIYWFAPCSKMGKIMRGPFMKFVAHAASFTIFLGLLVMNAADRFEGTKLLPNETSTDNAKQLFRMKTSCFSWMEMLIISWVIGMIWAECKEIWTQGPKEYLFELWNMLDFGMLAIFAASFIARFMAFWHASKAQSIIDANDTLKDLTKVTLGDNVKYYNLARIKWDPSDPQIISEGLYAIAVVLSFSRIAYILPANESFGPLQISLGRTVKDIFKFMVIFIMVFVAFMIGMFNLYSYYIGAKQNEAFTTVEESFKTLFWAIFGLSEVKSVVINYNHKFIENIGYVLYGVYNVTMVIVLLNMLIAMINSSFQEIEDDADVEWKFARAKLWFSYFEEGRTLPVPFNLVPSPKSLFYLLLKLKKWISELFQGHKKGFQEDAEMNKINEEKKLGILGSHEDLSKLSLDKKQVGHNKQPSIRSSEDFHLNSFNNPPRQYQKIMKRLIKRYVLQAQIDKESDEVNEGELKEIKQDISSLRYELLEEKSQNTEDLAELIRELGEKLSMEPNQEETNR
Assay: Evaluation of TRPC6 channel inhibitory activity (1), FLIPR Calcium 5 Assay Kit, OAG stimulation (Compound Nos. 1-1293)
Format: cell-based
Settings: Human TRPC6 stably-expressing cells, OAG 30 μM, FLIPR Calcium 5 Assay Kit; read-out: Inhibitory activity (pIC50 class) (converted)
Procedure, shortened: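 The FLIPR signal is maximum fluorescence after 30 μM OAG minus minimum before compound, measured in a human TRPC6 stable line loaded with Calcium 5 dye. Compounds were preincubated 20 min. pIC50 came from four-parameter logistic fitting of inhibition rates and is given as symbol ranges.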

Row | Structure (SMILES) | IC50 [nM]
1 | Cn1nc(C2CC2)cc1Oc1cc(C#N)ccc1-c1cc(C(=O)N2CCC[C@@H](N)C2)ccn1 [compound 554, 4-[4-[(3R)-3-aminopiperidine-1-carbonyl]pyridin-2-yl]-3-(5-cyclopropyl-2-methylpyrazol-3-yl)oxybenzonitrile] | > 1000
2 | Cn1nc(C2CC2)cc1Oc1cc(C#N)ccc1-c1cc(C(=O)N2CCC[C@H](N)C2)ccn1 [compound 555, 4-[4-[(3S)-3-aminopiperidine-1-carbonyl]pyridin-2-yl]-3-(5-cyclopropyl-2-methylpyrazol-3-yl)oxybenzonitrile] | > 1000
3 | Cn1nc(C2CC2)cc1Oc1cc(C#N)ccc1-c1cc(OCCN)ccn1 [compound 556, 4-[4-(2-aminoethoxy)pyridin-2-yl]-3-(5-cyclopropyl-2-methylpyrazol-3-yl)oxybenzonitrile] | 10 to 1000
4 | Cn1nc(Oc2cc(C#N)ccc2-c2ccc(CCN)cn2)cc1N1CCOCC1 [compound 557, 4-[5-(2-aminoethyl)pyridin-2-yl]-3-(1-methyl-5-morpholin-4-ylpyrazol-3-yl)oxybenzonitrile] | 10 to 1000
5 | Cc1nc(Oc2cc(C#N)ccc2-c2ccc([C@H](O)CN)cn2)cc(N2CCO[C@@H](C)C2)n1 [compound 558, 4-[5-[(1S)-2-amino-1-hydroxyethyl]pyridin-2-yl]-3-[2-methyl-6-[(2S)-2-methylmorpholin-4-yl]pyrimidin-4-yl]oxybenzonitrile] | 10 to 1000
6 | Cc1nc(Oc2cc(C#N)ccc2-c2ncc([C@H](O)CN)cn2)cc(N2CCO[C@@H](C)C2)n1 [compound 559, 4-[5-[(1S)-2-amino-1-hydroxyethyl]pyrimidin-2-yl]-3-[2-methyl-6-[(2S)-2-methylmorpholin-4-yl]pyrimidin-4-yl]oxybenzonitrile] | 10 to 1000
7 | Cc1nc(Oc2cc(C#N)ccc2-c2ccc([C@H](O)CN)cn2)cc(N2CCOC(C)(C)C2)n1 [compound 560, 4-[5-[(1S)-2-amino-1-hydroxyethyl]pyridin-2-yl]-3-[6-(2,2-dimethylmorpholin-4-yl)-2-methylpyrimidin-4-yl]oxybenzonitrile] | 10 to 1000
8 | Cc1nc(Oc2cc(C#N)ccc2-c2ncc([C@H](O)CN)cn2)cc(N2CCOC(C)(C)C2)n1 [compound 561, 4-[5-[(1S)-2-amino-1-hydroxyethyl]pyrimidin-2-yl]-3-[6-(2,2-dimethylmorpholin-4-yl)-2-methylpyrimidin-4-yl]oxybenzonitrile] | 10 to 1000
9 | Cc1cc(Oc2cc(C#N)ccc2-c2ccc(CC3(N)COC3)cn2)cc(N2CCOCC2)n1 [compound 562, 4-[5-[(3-aminooxetan-3-yl)methyl]pyridin-2-yl]-3-(2-methyl-6-morpholin-4-ylpyridin-4-yl)oxybenzonitrile] | < 10
10 | Cc1cc(Oc2cc(C#N)ccc2-c2ncc(OC3CNC3)cn2)cc(N2CCOCC2)n1 [compound 563, 4-[5-(azetidin-3-yloxy)pyrimidin-2-yl]-3-(2-methyl-6-morpholin-4 ylpyridin-4-yl)oxybenzonitrile] | > 1000
11 | Cc1cc(Oc2cc(C#N)ccc2-c2ccc(OC3CNC3)cn2)cc(N2CCOCC2)n1 [compound 564, 4-[5-(azetidin-3-yloxy)pyridin-2-yl]-3-(2-methyl-6-morpholin-4-ylpyridin-4-yl)oxybenzonitrile] | 10 to 1000
12 | Cc1cc(Oc2cc(C#N)ccc2-c2ccc(N3CC[C@H](N)C3=O)cn2)cc(N2CCOCC2)n1 [compound 565, 4-[5-[(3S)-3-amino-2-oxopyrrolidin-1-yl]pyridin-2-yl]-3-(2-methyl-6-morpholin-4-ylpyridin-4-yl)oxybenzonitrile] | > 1000
13 | Cc1cc(Oc2cc(C#N)ccc2-c2ccn(CCN)c(=O)c2)cc(N2CCOCC2)n1 [compound 566, 4-[1-(2-aminoethyl)-2-oxopyridin-4-yl]-3-(2-methyl-6-morpholin-4-ylpyridin-4-yl)oxybenzonitrile] | 10 to 1000
14 | Cc1cc(Oc2cc(C#N)ccc2-c2ccnc(OCCN)c2)cc(N2CCOCC2)n1 [compound 567, 4-[2-(2-aminoethoxy)pyridin-4-yl]-3-(2-methyl-6-morpholin-4-ylpyridin-4-yl)oxybenzonitrile] | 10 to 1000
15 | Cc1cc(Oc2cc(C#N)ccc2-c2ccc(N3CC(N)CC3=O)cn2)cc(N2CCOCC2)n1 (stereo not drawn) [compound 568, 4-[5-(4-amino-2-oxopyrrolidin-1-yl)pyridin-2-yl]-3-(2-methyl-6-morpholin-4-ylpyridin-4-yl)oxybenzonitrile] | > 1000
16 | Cc1cc(Oc2cc(C#N)ccc2-c2ccc(N3CC[C@@H](N)C3=O)cn2)cc(N2CCOCC2)n1 [compound 569, 4-[5-[(3R)-3-amino-2-oxopyrrolidin-1-yl]pyridin-2-yl]-3-(2-methyl-6-morpholin-4-ylpyridin-4-yl)oxybenzonitrile] | > 1000
17 | Cn1nc(C2CC2)cc1Oc1cc(C#N)ccc1-c1cccn2c(CCN)nnc12 [compound 570, 4-[3-(2-aminoethyl)-[1,2,4]triazolo[4,3-a]pyridin-8-yl]-3-(5-cyclopropyl-2-methylpyrazol-3-yl)oxybenzonitrile] | 10 to 1000
18 | Cn1nc(C2CC2)cc1Oc1cc(C#N)ccc1-c1cccn2c(C3CNC3)nnc12 [compound 571, 4-[3-(azetidin-3-yl)-[1,2,4]triazolo[4,3-a]pyridin-8-yl]-3-(5-cyclopropyl-2-methylpyrazol-3-yl)oxybenzonitrile] | > 1000
19 | Cc1cc(Oc2cc(C#N)ccc2-c2ncc(CN)cn2)cc(-c2ccccn2)n1 [compound 572, 4-[5-(aminomethyl)pyrimidin-2-yl]-3-(2-methyl-6-pyridin-2-ylpyridin-4-yl)oxybenzonitrile] | 10 to 1000
20 | Cn1nc(C2CC2)cc1Oc1cc(C#N)ccc1-c1cccn(CCN)c1=O [compound 573, 4-[1-(2-aminoethyl)-2-oxopyridin-3-yl]-3-(5-cyclopropyl-2-methylpyrazol-3-yl)oxybenzonitrile] | 10 to 1000
21 | Cn1nc(-c2nccs2)cc1Oc1cc(C#N)ccc1-c1ncc([C@H](O)CN)cn1 [compound 574, 4-[5-[(1S)-2-amino-1-hydroxyethyl]pyrimidin-2-yl]-3-[2-methyl-5-(1,3-thiazol-2-yl)pyrazol-3-yl]oxybenzonitrile] | 10 to 1000
22 | CC(C)Nc1cc(Oc2cc(C#N)ccc2-c2ccc(CCN)cn2)n(C)n1 [compound 575, 4-[5-(2-aminoethyl)pyridin-2-yl]-3-[2-methyl-5-(propan-2-ylamino)pyrazol-3-yl]oxybenzonitrile] | < 10
23 | Cn1nc(N)cc1Oc1cc(C#N)ccc1-c1ccc([C@H](O)CN)cn1 [compound 576, 4-[5-[(1S)-2-amino-1-hydroxyethyl]pyridin-2-yl]-3-(5-amino-2-methylpyrazol-3-yl)oxybenzonitrile] | > 1000
24 | Cn1nc(N)cc1Oc1cc(C#N)ccc1-c1ccc(CCN)cn1 [compound 577, 4-[5-(2-aminoethyl)pyridin-2-yl]-3-(5-amino-2-methylpyrazol-3-yl)oxybenzonitrile] | 10 to 1000
25 | Cc1cc(Oc2cc(C#N)ccc2-c2ccc(CCCN)cc2)cc(N2CCOCC2)n1 [compound 578, 4-[4-(3-aminopropyl)phenyl]-3-(2-methyl-6-morpholin-4-ylpyridin-4-yl)oxybenzonitrile] | 10 to 1000
26 | Cn1nc(-c2ccccc2)cc1Oc1cc(C#N)ccc1-c1ccc(CCCN)cc1 [compound 579, 4-[4-(3-aminopropyl)phenyl]-3-(2-methyl-5-phenylpyrazol-3-yl)oxybenzonitrile] | 10 to 1000
27 | Cc1cc(Oc2cc(C#N)ccc2-c2ccc([C@H](O)CN)cn2)cc(C2CCOCC2)n1 [compound 580, 4-[5-[(1S)-2-amino-1-hydroxyethyl]pyridin-2-yl]-3-[2-methyl-6-(oxan-4-yl)pyridin-4-yl]oxybenzonitrile] | 10 to 1000
28 | Cn1nc(C2CC2)cc1Oc1cc(C#N)ccc1-c1nnc(CN)s1 [compound 582, 4-[5-(aminomethyl)-1,3,4-thiadiazol-2-yl]-3-(5-cyclopropyl-2-methylpyrazol-3-yl)oxybenzonitrile] | > 1000
29 | Cn1nc(-c2ccccc2)cc1Oc1cc(C#N)ccc1-c1nnc(CN)s1 [compound 583, 4-[5-(aminomethyl)-1,3,4-thiadiazol-2-yl]-3-(2-methyl-5-phenylpyrazol-3-yl)oxybenzonitrile] | > 1000
30 | Cn1nc(C2CC2)cc1Oc1cc(C#N)ccc1-c1ncc(CN)o1 [compound 584, 4-[5-(aminomethyl)-1,3-oxazol-2-yl]-3-(5-cyclopropyl-2-methylpyrazol-3-yl)oxybenzonitrile] | > 1000
